According to patent publication US20240101570A1 (AMGEN INC., priority 2020, published 2024):

How the values were obtained:
HCT116 MTAP null cells = experiment: HCT116 MTAP null cell proliferation / viability (CellTiter-Glo, 6 days); type: cell-based; details: HCT116-MTAP null, 144 h, HCT116 MTAP null cells, 6 days, CellTiter-Glo; read-out: HCT-116 MTAP null IC50
Outline: (§1)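 Viability read by CellTiter-Glo after 6-day compound exposure of MTAP-null and wild-type HCT116 cells grown in RPMI 1640 with 10% FBS. Dosing used 1:3 steps from 1 or 10 μM (8-9 points) or 1:2 steps from 10 or 50 μM (22 points); IC50 taken where fitted curve crosses 50% of control.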

HCT116 WT cells = experiment: HCT116 WT cell proliferation / viability (CellTiter-Glo, 6 days); type: cell-based; details: Homo sapiens, HCT-116, 144 h, HCT116 WT cells, 6 days, CellTiter-Glo; read-out: HCT-116 WT IC50
Outline: as §1

CN(Cc1ccc(F)nc1F)C(=O)c1cc2c(cc1F)nc(N)c1cnn(C)c12 [Example 771, 4-amino-N-((2,6-difluoro-3-pyridinyl)methyl)-7-fluoro-N,1-dimethyl-1H-pyrazolo[4,3-c]quinoline-8-carboxamide]
IC50 (HCT116 MTAP null cells): 395 nM
IC50 (HCT116 WT cells): 31100 nM

CCN(C(=O)c1cc2c3c(c(N)nc2cn1)COC3)[C@H](C)c1ccc(C(F)F)cn1 [Example 773, 4-amino-N-((1R)-1-(5-(difluoromethyl)-2-pyridinyl)ethyl)-N-ethyl-1,3-dihydrofuro[3,4-c][1,7]naphthyridine-8-carboxamide]
IC50 (HCT116 MTAP null cells): 106 nM
IC50 (HCT116 WT cells): 2630 nM

C[C@H](c1cnc(C(F)(F)F)cn1)N(C)C(=O)c1ccc2nc(N)c3c(c2c1)COC3 [Example 774, 4-amino-N-methyl-N-((1R)-1-(5-(trifluoromethyl)-2-pyrazinyl)ethyl)-1,3-dihydrofuro[3,4-c]quinoline-8-carboxamide]
IC50 (HCT116 MTAP null cells): 736 nM
IC50 (HCT116 WT cells): 40600 nM

CCN(C(=O)c1ccc2nc(N)c3c(c2c1)CO[C@@H]3C)[C@H](C)c1ccc(C(F)F)cn1 [Example 775, (3R)-4-amino-N-((1R)-1-(5-(difluoromethyl)-2-pyridinyl)ethyl)-N-ethyl-3-methyl-1,3-dihydrofuro[3,4-c]quinoline-8-carboxamide]
IC50 (HCT116 MTAP null cells): 33 nM
IC50 (HCT116 WT cells): 2680 nM

C[C@H](c1cnc(C(F)(F)F)cn1)N(C)C(=O)c1ccc2nc(N)c3cnn(C)c3c2c1 [Example 776, 4-amino-N,1-dimethyl-N-((1R)-1-(5-(trifluoromethyl)-2-pyrazinyl)ethyl)-1H-pyrazolo[4,3-c]quinoline-8-carboxamide]
IC50 (HCT116 MTAP null cells): 150 nM
IC50 (HCT116 WT cells): > 10000 nM

CCN(C(=O)c1ccc2nc(N)c3c(c2c1)CO[C@@H]3C)[C@H](C)c1ccc(C(F)(F)F)cn1 [Example 777, (3R)-4-amino-N-ethyl-3-methyl-N-((1R)-1-(5-(trifluoromethyl)-2-pyridinyl)ethyl)-1,3-dihydrofuro[3,4-c]quinoline-8-carboxamide]
IC50 (HCT116 MTAP null cells): 25 nM
IC50 (HCT116 WT cells): 1380 nM

CCN(C(=O)c1ccc2nc(N)c3c(c2c1)CO[C@@H]3C)[C@H](C)c1ccc(C(F)(F)F)nn1 [Example 778, (3R)-4-amino-N-ethyl-3-methyl-N-((1R)-1-(6-(trifluoromethyl)-3-pyridazinyl)ethyl)-1,3-dihydrofuro[3,4-c]quinoline-8-carboxamide]
IC50 (HCT116 MTAP null cells): 49 nM
IC50 (HCT116 WT cells): 2660 nM

C[C@H](c1ccc(C(F)(F)F)nn1)N(C)C(=O)c1cc2c(cc1F)nc(N)c1c2cnn1C [Example 779, 4-amino-7-fluoro-N,3-dimethyl-N-((1R)-1-(6-(trifluoromethyl)-3-pyridazinyl)ethyl)-3H-pyrazolo[3,4-c]quinoline-8-carboxamide]
IC50 (HCT116 MTAP null cells): 364 nM
IC50 (HCT116 WT cells): 28900 nM

C[C@H](c1cnc(C(F)(F)F)cn1)N(C)C(=O)c1cc2c(cc1F)nc(N)c1cnn(C)c12 [Example 780, 4-amino-7-fluoro-N,1-dimethyl-N-((1R)-1-(5-(trifluoromethyl)-2-pyrazinyl)ethyl)-1H-pyrazolo[4,3-c]quinoline-8-carboxamide]
IC50 (HCT116 MTAP null cells): 22 nM
IC50 (HCT116 WT cells): 1180 nM

CCN(C(=O)c1cc2c3c(c(N)nc2cc1F)COC3)[C@H](C)c1ccc(C(F)(F)F)nn1 [Example 781, 4-amino-N-ethyl-7-fluoro-N-((1R)-1-(6-(trifluoromethyl)-3-pyridazinyl)ethyl)-1,3-dihydrofuro[3,4-c]quinoline-8-carboxamide]
IC50 (HCT116 MTAP null cells): 37 nM
IC50 (HCT116 WT cells): 1310 nM

CN(Cc1ccc(C(F)(F)F)nc1F)C(=O)c1cc2c(cc1F)nc(N)c1cnn(C)c12 [Example 782, 4-amino-7-fluoro-N-((2-fluoro-6-(trifluoromethyl)-3-pyridinyl)methyl)-N,1-dimethyl-1H-pyrazolo[4,3-c]quinoline-8-carboxamide]
IC50 (HCT116 MTAP null cells): 80 nM
IC50 (HCT116 WT cells): 7770 nM

CCN(C(=O)c1ccc2nc(N)c3c(c2c1)COC3)[C@@H](c1ccc(C(F)(F)F)nn1)C1CC1 [Example 783, 4-amino-N-((R)-cyclopropyl(6-(trifluoromethyl)-3-pyridazinyl)methyl)-N-ethyl-1,3-dihydrofuro[3,4-c]quinoline-8-carboxamide]
IC50 (HCT116 MTAP null cells): 868 nM
IC50 (HCT116 WT cells): 16400 nM

CCN(C(=O)c1cc2c3c(c(N)nc2cc1F)[C@@H](C)OC3)[C@H](C)c1ccc(C(F)(F)F)nn1 [Example 784, (3R)-4-amino-N-ethyl-7-fluoro-3-methyl-N-((1R)-1-(6-(trifluoromethyl)-3-pyridazinyl)ethyl)-1,3-dihydrofuro[3,4-c]quinoline-8-carboxamide]
IC50 (HCT116 MTAP null cells): 22 nM
IC50 (HCT116 WT cells): 609 nM

CCN(C(=O)c1cc2c3c(c(N)nc2cc1F)[C@H](C)OC3)[C@H](C)c1ccc(C(F)(F)F)nn1 [Example 785, (3S)-4-amino-N-ethyl-7-fluoro-3-methyl-N-((1R)-1-(6-(trifluoromethyl)-3-pyridazinyl)ethyl)-1,3-dihydrofuro[3,4-c]quinoline-8-carboxamide]
IC50 (HCT116 MTAP null cells): 851 nM
IC50 (HCT116 WT cells): 19800 nM

C[C@H](c1ccc(C(F)(F)C(F)(F)F)cc1)N(C)C(=O)c1cc2c(cn1)nc(N)c1c2cnn1C [Example 786, 4-amino-N,3-dimethyl-N-((1R)-1-(4-(pentafluoroethyl)phenyl)ethyl)-3H-pyrazolo[3,4-c][1,7]naphthyridine-8-carboxamide]
IC50 (HCT116 MTAP null cells): 126 nM
IC50 (HCT116 WT cells): 7330 nM

C[C@@H](c1ccc(C(F)(F)C(F)(F)F)cc1)N(C)C(=O)c1cc2c(cc1F)nc(N)c1cnn(C)c12 [Example 787, 4-amino-7-fluoro-N,1-dimethyl-N-((1S)-1-(4-(pentafluoroethyl)phenyl)ethyl)-1H-pyrazolo[4,3-c]quinoline-8-carboxamide]
IC50 (HCT116 MTAP null cells): 865 nM
IC50 (HCT116 WT cells): 8970 nM

C[C@H](c1ccc(C(F)(F)C(F)(F)F)cc1)N(C)C(=O)c1cc2c(cc1F)nc(N)c1cnn(C)c12 [Example 788, 4-amino-7-fluoro-N,1-dimethyl-N-((1R)-1-(4-(pentafluoroethyl)phenyl)ethyl)-1H-pyrazolo[4,3-c]quinoline-8-carboxamide]
IC50 (HCT116 MTAP null cells): 8 nM
IC50 (HCT116 WT cells): 134 nM

CN(Cc1ccc(-c2cnn(C(F)(F)F)c2)cn1)C(=O)c1cc2c(cc1F)nc(N)c1cnn(C)c12 [Example 789, 4-amino-7-fluoro-N,1-dimethyl-N-((5-(1-(trifluoromethyl)-1H-pyrazol-4-yl)-2-pyridinyl)methyl)-1H-pyrazolo[4,3-c]quinoline-8-carboxamide]
IC50 (HCT116 MTAP null cells): 83 nM
IC50 (HCT116 WT cells): 6930 nM

Cn1ncc2c(N)nc3ccc(C(=O)N(Cc4ccc(C(F)(F)F)nn4)C4CC4)cc3c21 [Example 790, 4-amino-N-cyclopropyl-1-methyl-N-((6-(trifluoromethyl)-3-pyridazinyl)methyl)-1H-pyrazolo[4,3-c]quinoline-8-carboxamide]
IC50 (HCT116 MTAP null cells): 776 nM
IC50 (HCT116 WT cells): 47100 nM

CN(Cc1ccc(C(F)(F)F)cn1)C(=O)c1cc2c(cc1Cl)nc(N)c1cnn(C)c12 [Example 791, 4-amino-7-chloro-N,1-dimethyl-N-((5-(trifluoromethyl)-2-pyridinyl)methyl)-1H-pyrazolo[4,3-c]quinoline-8-carboxamide]
IC50 (HCT116 MTAP null cells): 11 nM
IC50 (HCT116 WT cells): 341 nM

CN(Cc1ccc(C(F)(F)F)nn1)C(=O)c1cc2c(cc1Cl)nc(N)c1cnn(C)c12 [Example 792, 4-amino-7-chloro-N,1-dimethyl-N-((6-(trifluoromethyl)-3-pyridazinyl)methyl)-1H-pyrazolo[4,3-c]quinoline-8-carboxamide]
IC50 (HCT116 MTAP null cells): 30 nM
IC50 (HCT116 WT cells): 2330 nM

CCN(Cc1ccc(C(F)(F)F)cn1)C(=O)c1cc2c(cc1Cl)nc(N)c1cnn(C)c12 [Example 793, 4-amino-7-chloro-N-ethyl-1-methyl-N-((5-(trifluoromethyl)-2-pyridinyl)methyl)-1H-pyrazolo[4,3-c]quinoline-8-carboxamide]
IC50 (HCT116 MTAP null cells): 11 nM
IC50 (HCT116 WT cells): 296 nM

CCN(Cc1ccc(C(F)(F)F)nn1)C(=O)c1cc2c(cc1Cl)nc(N)c1cnn(C)c12 [Example 794, 4-amino-7-chloro-N-ethyl-1-methyl-N-((6-(trifluoromethyl)-3-pyridazinyl)methyl)-1H-pyrazolo[4,3-c]quinoline-8-carboxamide]
IC50 (HCT116 MTAP null cells): 20 nM
IC50 (HCT116 WT cells): 499 nM

Cn1ncc2c(N)nc3cc(Cl)c(C(=O)N(Cc4ccc(C(F)(F)F)cn4)C4CC4)cc3c21 [Example 795, 4-amino-7-chloro-N-cyclopropyl-1-methyl-N-((5-(trifluoromethyl)-2-pyridinyl)methyl)-1H-pyrazolo[4,3-c]quinoline-8-carboxamide]
IC50 (HCT116 MTAP null cells): 8 nM
IC50 (HCT116 WT cells): 379 nM

Cn1ncc2c(N)nc3cc(Cl)c(C(=O)N(Cc4ccc(C(F)(F)F)nn4)C4CC4)cc3c21 [Example 796, 4-amino-7-chloro-N-cyclopropyl-1-methyl-N-((6-(trifluoromethyl)-3-pyridazinyl)methyl)-1H-pyrazolo[4,3-c]quinoline-8-carboxamide]
IC50 (HCT116 MTAP null cells): 34 nM
IC50 (HCT116 WT cells): 1670 nM

Cn1ncc2c(N)nc3ccc(C(=O)N(Cc4ccc(C(F)(F)F)cn4)CC(F)(F)F)cc3c21 [Example 797, 4-amino-1-methyl-N-(2,2,2-trifluoroethyl)-N-((5-(trifluoromethyl)-2-pyridinyl)methyl)-1H-pyrazolo[4,3-c]quinoline-8-carboxamide]
IC50 (HCT116 MTAP null cells): 41 nM
IC50 (HCT116 WT cells): 755 nM

Cn1ncc2c(N)nc3cc(Cl)c(C(=O)N(Cc4ccc(C(F)(F)F)cn4)C4CCC4)cc3c21 [Example 798, 4-amino-7-chloro-N-cyclobutyl-1-methyl-N-((5-(trifluoromethyl)-2-pyridinyl)methyl)-1H-pyrazolo[4,3-c]quinoline-8-carboxamide]
IC50 (HCT116 MTAP null cells): 10 nM
IC50 (HCT116 WT cells): 152 nM

Cn1ncc2c(N)nc3cc(Cl)c(C(=O)N(Cc4ccc(C(F)(F)F)nn4)C4CCC4)cc3c21 [Example 799, 4-amino-7-chloro-N-cyclobutyl-1-methyl-N-((6-(trifluoromethyl)-3-pyridazinyl)methyl)-1H-pyrazolo[4,3-c]quinoline-8-carboxamide]
IC50 (HCT116 MTAP null cells): 8 nM
IC50 (HCT116 WT cells): 263 nM
